In US9481636B2, “N-benzylaniline derivative and uses thereof” (Nanjing Medical University, priority 2011, dated 2016):

Columns and labels:
[1] = test system: neuropathic pain in mice (mechanical stimulus); assay: Neuropathic pain model (SNL), mechanical pain threshold (von Frey); format: in vivo; settings: intragastric 40 mg/kg; for efficacy duration of a single dose / time after administration at which significant efficacy was shown: SNL, mechanical; for threshold of paw withdrawal response to mechanical stimulus: day 7 after SNL, FIG. 6
[2] = test system: OGD-injuried neurons (primary cortical neurons); assay: Cell viability assay: LDH release by OGD-injured primary cortical neurons; format: cell-based, mice; settings: drug concentration 10^−6 M/L, OGD 2 hours, LDH after 8 hours; for inhibition at 1 µM: Mus musculus, Primary cortical neuron
Experimental: After primary neurons were cultured for 9 days, the medium was replaced by DMEM high glucose medium containing 1% FBS, serum-starved overnight and then washed twice with OGD culture solution. This OGD culture solution contains DMEM medium, 1% FBS, 1% penicillin/streptomycin and B27, and contains no sugar. Then, the primary neurons were incubated with the test drugs for 30 minutes, OGD culture solution was added into an anaerobic tank and oxygen-deprived for 2 hours. The OGD culture solution was discarded, and replaced by oxygen-saturated DMEM medium containing 1% FBS, 1% penicillin/streptomycin and B27. After 8 hours the culture solution was collected to measure LDH level.
After the primary cortical neurons were treated with various processes, neuronal culture solution in six-well plates was pipetted to a 1.5 mL plastic centrifuge tube; cells were washed three times with PBS solution and each well was added PBS 1000 μl. The cells were freezed and thawed repeated for three times, centrifuged at 12000′ g for 5 minutes at 4° C., and the supernatant was removed for use. The activity of LDH enzyme was determined with 50 μl culture solution and 25 μl supernatant using lactate dehydrogenase kit.
Protective Effects of the Objective Compounds Against Primary Cortical Neuronal Injury Cultured In Vitro (See Table 2)

[3] = test system: acute focal cerebral ischemia/reperfusion injury in rats; assay: MCAO focal cerebral ischemia/reperfusion injury: infarct area and neurological defect score; format: in vivo; settings: tail vein 1.5 mg/kg 1 h after reperfusion, 48 h, FIG. 8; for cerebral infarct area: MCAO 120 min
Text: Cerebral ischemia injury was induced by middle cerebral artery occlusion (MCAO) reperfusion model. […] The neck skin was incised along median line, and neck muscle tissue was bluntly dissected to expose and carefully isolate the common carotid artery (CCA) on the right side. The concomitant vagus nerve was gently peeled and ligated, and inward and superficial external carotid artery (ECA) was cut off; pterygopalatine artery, outward branch artery near skull base along internal carotid artery (ICA), was isolated and ligated. […] At this point, the blood supply to the middle cerebral arteries (MCA) including carotid artery and ramus communicans before Waldeyer's ring were all blocked. The depth of the inserted line was determined based on the mark. Extravascular part of the line was ligated and fixed to prevent the line from slippage. After rightside cerebral ischemia 120 minutes, the line was carefully unplugged and the broken end was ligated to achieve reperfusion after ischemia. Suturing the skin, and the rats were returned to cage and fed carefully. The body temperature of the animals was maintained constantly at 37±0.5° C. during surgery.
The modified Bederson 5-score method was used for evaluation of neurological defect symptoms. Neurological defect symptoms of rats after cerebral ischemia was evaluated by single-blinded method, i.e., test animals were marked by group by the test designers and testers who graded neurological defect symptoms didn't know the animal grouping, after the grading the testers submitted the grading results with various marks to the designers, and the designers unblinded the grouping to obtain scores for each animal in each test group.
The animals were anesthetized with 10% chloral hydrate 3.5 ml/kg, the brains were taken out after beheading, and olfactory bulb, cerebellum and lower brain stem were removed. Blood on the surface of the brain was washed with normal saline and residual water on the surface was absorbed. The brains were placed at −80° C. for 7 min, and once taken out were sliced at the coronal cross planes vertically to the sight plane with 2 mm intervals between the slices. The brain slices were immersed in a water bath (37° C., 90 min) containing 20 g/L TTC dye freshly prepared with 0.2 mol/L pH 7.4˜7.8 PBS, and normal brain tissues were stained crimson while ischemic brain tissues were pale. After the tissues were washed with normal saline, the brain slices were rapidly aligned in a row from front to back in order, and the surface residual water was absorbed to dry surface, then photographed. Statistics of the pictures were carried on using image analysis software, and ischemic area (white area) and total area on the right side were delineated. The percentage of cerebral infarct area was calculated using the following formula.
Neurological deficit symptoms were evaluated 48 h after the cerebral ischemia, then the animals were sacrificed and the brains were taken out, TTC stained, and infarct areas of the stained brain slices were measured.
The rats were under MCAO for 120 min, and 1 h after reperfusion the rats were injected through tail vein with ZL006-06, ZL006-16, ZL006-28, ZL006-30, ZL006-43, ZL006-82 or an equivalent volume of solvent, wherein the doses of each drug were 1.5 mg/kg, and the volume of injected drugs was 0.1 ml/100 g weight. Neurological deficit symptoms were evaluated 48 h after the cerebral ischemia, then the animals were sacrificed and the brains were taken out, TTC stained, and infarct areas of the stained brain slices were measured.

CC(=O)Oc1cc(NCc2cc(Cl)cc(Cl)c2O)ccc1C(=O)OC1CC2CCC1(C)C2(C)C (centres unmarked) [ZL006-06, bornyl-2-acetyloxy-4-(2-hydroxy-3,5-dichlorobenzyl) aminobenzoate]
efficacy duration of a single dose [1]: about 6 hours
time after administration at which significant efficacy was shown [1]: 0.5 h
threshold of paw withdrawal response to mechanical stimulus [1]: significantly increased
Inhibition of LDH release (%) [2]: 55.8%
neurological defect symptoms [3]: significantly alleviated
cerebral infarct area [3]: significantly reduced

CC1(C)C2CCC1(C)C(OC(=O)c1cc(Cl)c(NCc3cc(Cl)cc(Cl)c3O)cc1O)C2 (centres unmarked) [ZL006-16, bornyl-2-hydroxy-4-(2-hydroxy-3,5-dichlorobenzyl)amino-5-chlorobenzoate]
efficacy duration of a single dose [1]: about 6 hours
time after administration at which significant efficacy was shown [1]: 0.5 h
threshold of paw withdrawal response to mechanical stimulus [1]: significantly increased
inhibition at 1 µM [2]: 60.3%
neurological defect symptoms [3]: significantly alleviated
cerebral infarct area [3]: significantly reduced

CC(=O)N(Cc1cc(Cl)cc(Cl)c1O)c1ccc(C(=O)OC2CC3CCC2(C)C3(C)C)c(O)c1 (centres unmarked) [ZL006-28, bornyl-2-hydroxy-4-[N-(2-hydroxy-3,5-dichlorobenzyl)-N-acetyl]aminobenzoate]
efficacy duration of a single dose [1]: about 6 hours
time after administration at which significant efficacy was shown [1]: 0.5 h
threshold of paw withdrawal response to mechanical stimulus [1]: significantly increased
Inhibition of LDH release (%) [2]: 61.6%
neurological defect symptoms [3]: significantly alleviated
cerebral infarct area [3]: significantly reduced

CC(=O)Oc1cc(N(C)Cc2cc(Cl)cc(Cl)c2O)ccc1C(=O)OC1CC2CCC1(C)C2(C)C (centres unmarked) [ZL006-30, bornyl-2-acetyloxy-4-[N-(2-hydroxy-3,5-dichlorobenzyl)-N-methyl]aminobenzoate]
efficacy duration of a single dose [1]: about 6 hours
time after administration at which significant efficacy was shown [1]: 0.5 h
threshold of paw withdrawal response to mechanical stimulus [1]: significantly increased
Inhibition of LDH release (%) [2]: 65.9%
neurological defect symptoms [3]: significantly alleviated
cerebral infarct area [3]: significantly reduced

CC(=O)Oc1cc(NCc2cc(Cl)ccc2O)ccc1C(=O)OC1CC2CCC1(C)C2(C)C (centres unmarked) [ZL006-68, bornyl-2-acetyloxy-4-(2-hydroxy-5-chlorobenzyl) aminobenzoate]
Inhibition of LDH release (%) [2]: 1.2%

CC1(C)C2CCC1(C)C(OC(=O)c1ccc(NCc3cc(F)ccc3O)cc1O)C2 (centres unmarked) [ZL006-69, bornyl-2-hydroxy-4-(2-hydroxy-5-fluorobenzyl) aminobenzoate]
Inhibition of LDH release (%) [2]: 17.3%

COc1cc(NCc2cc(F)ccc2O)ccc1C(=O)OC1CC2CCC1(C)C2(C)C (centres unmarked) [ZL006-70, bornyl-2-methoxy-4-(2-hydroxy-5-fluorobenzyl) aminobenzoate]
Inhibition of LDH release (%) [2]: 2.4%

CC(=O)Oc1cc(NCc2cc(F)ccc2O)ccc1C(=O)OC1CC2CCC1(C)C2(C)C (centres unmarked) [ZL006-71, bornyl-2-acetyloxy-4-(2-hydroxy-5-fluorobenzyl) aminobenzoate]
Inhibition of LDH release (%) [2]: 7.8%

CC1(C)C2CCC1(C)C(OC(=O)c1ccc(NCc3cc(C(F)(F)F)ccc3O)cc1O)C2 (centres unmarked) [ZL006-72, bornyl-2-hydroxy-4-(2-hydroxy-5-trifluoromethylbenzyl) aminobenzoate]
Inhibition of LDH release (%) [2]: 21.6%

COc1cc(NCc2cc(C(F)(F)F)ccc2O)ccc1C(=O)OC1CC2CCC1(C)C2(C)C (centres unmarked) [ZL006-73, bornyl-2-methoxy-4-(2-hydroxy-5-trifluoromethylbenzyl) aminobenzoate]
Inhibition of LDH release (%) [2]: 25.3%

CC(=O)Oc1cc(NCc2cc(C(F)(F)F)ccc2O)ccc1C(=O)OC1CC2CCC1(C)C2(C)C (centres unmarked) [ZL006-74, bornyl-2-acetyloxy-4-(2-hydroxy-5-trifluoromethylbenzyl)aminobenzoate]
inhibition at 1 µM [2]: 24.7%

COc1c(Cl)cc(Cl)cc1CNc1ccc(C(=O)OC2CC3CCC2(C)C3(C)C)c(O)c1 (centres unmarked) [ZL006-75, bornyl-2-hydroxy-4-(2-methoxy-3,5-dichlorobenzyl) aminobenzoate]
Inhibition of LDH release (%) [2]: 31.3%

CC(=O)Oc1c(Cl)cc(Cl)cc1CNc1ccc(C(=O)OC2CC3CCC2(C)C3(C)C)c(O)c1 (centres unmarked) [ZL006-76, bornyl-2-hydroxy-4-(2-acetyloxy-3,5-dichlorobenzyl) aminobenzoate]
Inhibition of LDH release (%) [2]: 40.5%

COc1c(Cl)cc(Br)cc1CNc1ccc(C(=O)OC2CC3CCC2(C)C3(C)C)c(O)c1 (centres unmarked) [ZL006-77, bornyl-2-hydroxy-4-(2-methoxy-3-chloro-5-bromobenzyl) aminobenzoate]
Inhibition of LDH release (%) [2]: 44.1%

CC(=O)Oc1c(Cl)cc(Br)cc1CNc1ccc(C(=O)OC2CC3CCC2(C)C3(C)C)c(O)c1 (centres unmarked) [ZL006-78, bornyl-2-hydroxy-4-(2-acetyloxy-3-chloro-5-bromobenzyl) aminobenzoate]
Inhibition of LDH release (%) [2]: 70.6%

COc1c(Cl)cc(C(F)(F)F)cc1CNc1ccc(C(=O)OC2CC3CCC2(C)C3(C)C)c(O)c1 (centres unmarked) [ZL006-79, bornyl-2-hydroxy-4-(2-methoxy-3-chloro-5-trifluoromethylbenzyl)aminobenzoate]
inhibition at 1 µM [2]: 58.3%

CC(=O)Oc1c(Cl)cc(C(F)(F)F)cc1CNc1ccc(C(=O)OC2CC3CCC2(C)C3(C)C)c(O)c1 (centres unmarked) [ZL006-80, bornyl-2-hydroxy-4-(2-acetyloxy-3-chloro-5-trifluoromethylbenzyl)aminobenzoate]
inhibition at 1 µM [2]: 41.1%

COC(=O)c1ccc(N(Cc2cc(Cl)cc(Cl)c2O)C(C)=O)cc1OC(C)=O [ZL006-81, methyl 2-acetyloxy-4-[N-(2-hydroxy-3,5-dichlorobenzyl)-N-acetyl]aminobenzoate]
Inhibition of LDH release (%) [2]: 31.8%

COC(=O)c1ccc(N(Cc2cc(C(F)(F)F)cc(Cl)c2O)C(C)=O)cc1OC(C)=O [ZL006-83, methyl 2-acetyloxy-4-[N-(2-hydroxy-3-chloro-5-trifluoromethylbenzyl)-N-acetyl]aminobenzoate]
Inhibition of LDH release (%) [2]: 33.2%

bornyl-2-(2-ethoxy-2-carbonylethoxy)-4-[N-(2-hydroxy-3,5-dichlorobenzyl)-N-(2-ethoxy-2-carbonylethyl)]aminobenzoate [ZL006-36]
Inhibition of LDH release (%) [2]: 10.4%

bornyl-2-(2-methoxy-2-carbonylethoxy)-4-[N-(2-hydroxy-3,5-dichlorobenzyl)-N-methyl]aminobenzoate [ZL006-34]
Inhibition of LDH release (%) [2]: 24.1%

bornyl-2-(bornyl-2-carbonylethoxy)-4-[N-(2-hydroxy-3,5-dichlorobenzyl)-N-(bornyl-2-carbonylethyl)]aminobenzoate [ZL006-37]
Inhibition of LDH release (%) [2]: 40.2%

methyl 2-(bornyl-2-carbonylethoxy)-4-[N-(2-hydroxy-3,5-dichlorobenzyl)-N-acetyl]aminobenzoate [ZL006-35]
Inhibition of LDH release (%) [2]: 12.8%

methyl 2-acetyloxy-4-[N-(2-hydroxy-3,5-dichlorobenzyl)-N-(bornyl-2-carbonylethyl)]aminobenzoate [ZL006-38]
Inhibition of LDH release (%) [2]: 41.3%
